Reference: paper PMC11436757, “BRCA2 stabilises RAD51 and DMC1 nucleoprotein filaments through a conserved interaction mode” (Nature Communications, 2024)
Entries after “also recorded” stand apart in the source; their conditions may differ. No end group written: not given here.

What was measured:
DMC1 = details: ref [21],[27],[32]; cited from earlier work
Text: The PhePP-binding site of DMC1 is formed by two loops, corresponding to amino-acids 147-153 and 178-183, respectively. The first loop consists of amino-acids 147-GAGGYPG-153 in DMC1 and 148-IDRGGGE-154 in RAD51 (herein referred to as PhePP-binding loop A; Fig. 1d), and is one of the most divergent regions between DMC1 and RAD51 (Supplementary Fig. 4). The second loop consists of amino-acids 178-NVDHDA-183 in DMC1 and 179-GLSGSD-184 in RAD51 (herein referred to as PhePP-binding loop B; Fig. 1e), in which residues V179 (DMC1) and L180 (RAD51) substantially contribute to the PhePP-binding pocket. ...

DMC1 ΔN V179E = experiment: Amylose pull-down of His-DMC1 ΔN V179E with MBP-BRCA2 fusions; format: binding, human; details: lysates mixed; MBP-BRCA2 fusion; 20 mM Tris pH 8.0, 500 mM KCl, 2 mM DTT
Experimental: For affinity experiments involving DMC1 ΔN V179E and F85E, MBP-fusions of BRCA2 fragments (Ex14, amino-acids 2387-2420, Ex14-Tr, amino acids 2401-2414, BRC4, amino acids 1519-1551) were cloned into pMAT11 vectors and DMC1 ΔN mutants (V179E or F85E) were cloned into pHAT4 vectors. Lysates of bacterial cultures expressing His6-DMC1 mutants or MBP-BRCA2 constructs were mixed, and complexes were purified through amylose affinity chromatography in 20 mM Tris pH 8.0, 500 mM KCl, 2 mM DTT and eluted using 30 mM D-maltose.

DMC1 ΔN loop mutant = molecular target: T1, DMC1 ΔN loop mutant (Homo sapiens, UniProt Q14565, A148D/A183D/D180S/D182S/G147I/G149R/G153E/H181G/N178G/P152G/V179L/Y151G); experiment: Microscale thermophoresis (MST), BRCA2 peptide and DMC1 ΔN loop mutant; format: binding; details: labelled DMC1 ΔN loop mutant 150 nM; pH 8.0
T1 construct: DMC1 ΔN (83-340) were cloned into pHAT4; made in house
T1 sequence (Q14565 83-340 G147I/A148D/G149R/Y151G/P152G/G153E/N178G/V179L/D180S/H181G/D182S/A183D limits assumed): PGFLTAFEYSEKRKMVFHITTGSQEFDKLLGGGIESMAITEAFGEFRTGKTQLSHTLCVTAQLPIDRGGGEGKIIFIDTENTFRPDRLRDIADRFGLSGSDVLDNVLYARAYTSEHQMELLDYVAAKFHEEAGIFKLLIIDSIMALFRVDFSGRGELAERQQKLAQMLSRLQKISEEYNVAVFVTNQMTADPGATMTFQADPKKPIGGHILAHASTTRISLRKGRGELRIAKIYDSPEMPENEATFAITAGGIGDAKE
Experimental: DMC1 ΔN and DMC1 ΔN loop mutant were labelled in 10 mM HEPES pH 8.0, 150 mM NaCl with an amine reactive fluorescent dye (MonolithTM Protein Labelling Kit BLUE-NHS, Nanotemper GmbH). A serial dilution of titrant (peptide) was prepared in 10 mM HEPES pH 8.0, 150 mM NaCl, 0.05 % Tween-20. The concentration of labelled DMC1 ΔN or DMC1 ΔN loop mutant were constant at 150 nM and the concentration of the interacting peptide was titrated in 1:1 dilutions starting from 750 µM. An equal volume (10 µl) of the serial dilution and of the diluted labelled DMC1 were mixed and loaded in glass capillaries (MonolithTM NT.115 MST Premium Coated Capillaries, Nanotemper GmbH). The initial fluorescence and the thermophoretic mobility were measured on a Monolith NT.115 system (NanoTemper Technologies). […]
As a change in initial fluorescence was detected, SDS denaturation (SD) tests were performed according to the manufacturer’s instructions to determine whether these changes were ligand-induced and whether the data could therefore be used to derive affinity measurements. […] After incubating each for 5 minutes at 95 °C to denature the proteins and subject to brief centrifugation, the samples were loaded onto Premium Coated Capillaries and their initial fluorescence measurements recorded. […] Initial fluorescence readings were used to derive binding affinities.

RAD51-ssDNA filaments = details: ref [33],[34]; cited from earlier work
Text: BRCA2 interacts with RAD51 and DMC1 recombinases through BRC repeats and PhePP motifs (Fig. 1a)[21],[25]–[28]. The eight BRC repeats, located within BRCA2’s central exon 11 region, bind to RAD51 and DMC1 with various affinities[25],[29],[30].

[1] = system: RAD51 L180E-ssDNA filaments; experiment: EMSA, protection of RAD51 L180E-ssDNA filaments from BRC4-mediated disruption (random sequence ssDNA); format: biochemical; details: 100-nt random ssDNA
Experimental: (§1) To form nucleoprotein filaments, DMC1 and RAD51 was incubated with fluorescent 100-base ssDNA (5’-FAM- […]-3’) at the concentrations indicated in the figures for 30 minutes at 4 °C in reaction buffer. For DMC1, reaction buffer is 25 mM TEA (triethanolamine) pH 7.5, 1 mM ATP, 2 mM MgCl2, 0.1 mg/ml BSA, 2 mM DTT, 200 mM KCl. For RAD51, reaction buffer is 50 mM TEA (triethanolamine), 2 mM ATP, 0.5 mM MgCl2, 2 mM DTT. For assays requiring incomplete nucleoprotein filament assembly, the reaction buffer consisted of 50 mM TAE (tris, acetate, EDTA) pH 7.5, 2 mM ATP, 2 mM MgCl2, 2 mM DTT. In nucleoprotein formation stimulation assays or supershift experiments, BRCA2Ex14 or BRCA2Ex14-AAA were added for a further 30 min at 4 °C. […] Glycerol was added at a final concentration of 3%, and samples were analysed by electrophoresis on a 1% (w/v) (for DMC1) or 0.66% (w/v) (for RAD51) agarose gel in 0.5x TAE pH 8.0 at 20–40 V for ~4 h at 4 °C. DNA was detected by FAM using a Typhoon^TM FLA 9500 (GE Healthcare), with 473 nm laser at excitation wavelength 490 nm and emission wavelength 520 nm, using the LPB filter and a PMT voltage of 500 V. To analyse RAD51 nucleoprotein filaments assembled upon 100-base poly(dT) ssDNA, gels were stained post-run using SYBR^TM Gold Nucleic Acid Gel Stain (Invitrogen) and detected using a Typhoon^TM FLA 9500 (GE Healthcare).

[2] = system: RAD51 L180E-ssDNA (polydT) filaments; experiment: EMSA, protection of RAD51 L180E-ssDNA (polydT) filaments from BRC4-mediated disruption; format: biochemical; details: 100-nt polydT
Experimental: as §1

ATRNEKMRHLITTGRPTKVFVPPFKTKSHFHRVE [Ex14]
selective binding to DMC1 (DMC1): bind selectively to DMC1
binding in pull-down (DMC1 ΔN V179E): failed to interact; also recorded: blocked its ability to bind Ex14
interaction by MST (in words) (DMC1 ΔN loop mutant): not detectable; also recorded: abolished its ability to bind Ex14

Ex27: BRCA2 exon 27 PhePP peptide, amino acids 3270-3315 (ALDFLSRLPLPPPVSPICTFVSPAAQKAFQPPRSCGTKYETPIKKK; UniProt P51587 3270-3315, looked up, fragment)
protection of nucleoprotein filaments from BRC-mediated disruption (RAD51-ssDNA filaments): protects nucleoprotein filaments from BRC-mediated disruption
protection of RAD51 L180E-ssDNA filaments from BRC4-mediated disruption [1]: not protected; also recorded: abrogated
protection of RAD51 L180E-ssDNA (polydT) filaments from BRC4-mediated disruption [2]: not protected; also recorded: almost entirely lost; also recorded: abrogated
